Our source for the GI50 and TGI values is PubChem BioAssay (NCI).

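Following 48 hours of exposure in 96-well plates, responses at five concentrations were used to interpolate endpoints linearly. Here, GI50 denotes the concentration required for 50% inhibition of growth. Definition used: TGI = concentration required for complete inhibition of growth.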

Assay in all cases: DTP human tumour cell line panel, 48 h
Test [1] concerns 786-0 renal.
Test [2] deals with A498 renal.
Test [3] has as its system CCRF-CEM leukemia.
Test [4] deals with NCI-H460 lung.
Test [5] concerns OVCAR-3 ovarian.
For test [6], the system named is OVCAR-5 ovarian.
Test [7] concerns SK-MEL-2 melanoma.
The test system of test [8] is SK-MEL-5 melanoma.
The subject of test [9] is SNB-75 CNS.
The subject of test [10] is NCI/ADR-RES ovarian.

In the case of `[Cl-].[O-]/N=C(\c1ccccc1)c1ccccn1.[O-]/N=C(\c1ccccc1)c1ccccn1.[O-]/N=C(\c1ccccc1)c1ccccn1.[Sm+3]`, the GI50 in test [1] is 24100 nM; in test [2] it was 58.3 µM; in test [3], 26600 nM; in [4], 27300 nM; in test [5] it was 18000 nM; in test [6] it was 53.9 µM. Further, the GI50 is 22000 nM in [7], 20500 nM in test [8] and 4490 nM in [9]. Also, the TGI in test [1] was 65.5 µM; in test [2], greater than 100 µM; in test [3] it was 98.8 µM; in test [4], greater than 100 µM; in test [5], 73.7 µM; in test [6], greater than 100 µM. Besides, the total growth inhibition concentration (TGI) in [7] came out at 52.8 µM; in [8], 47 µM; in test [9] it was 31.3 µM.

Consider `COc1cc(-c2cc3ncccc3c3nc(N)c4cccnc4c23)cc(OC)c1OC`, for which the GI50 is 511 nM in test [1]; 481 nM in [3]; 408 nM in test [4]; 492 nM in test [10]; 229 nM in test [5]; 4.98 µM in test [6]. The GI50 in test [7] was 533 nM; in test [8], 296 nM. Besides, the TGI in test [1] was 10.8 µM; in [3], 30.2 µM; in test [4], 16.8 µM; in test [10] it was 23.4 µM; in test [5], 2.68 µM; in test [6], greater than 100 µM. Moreover, the results for the total growth inhibition concentration (TGI) in [7] and in [8] were 8.86 µM and 1.99 µM, respectively.

`CCOC(=O)C1N(S(=O)(=O)c2ccc(C)cc2)CCC12c1ccccc1N(C(C)=O)C2c1ccc(OC)c(OC)c1` (stereo not drawn): the concentration for total growth inhibition (TGI) in test [1], in test [2], in test [3], in [4], in test [5] and in test [6] was greater than 100 µM in each case. The TGI in [8] and in [9] was greater than 100 µM each time.

Turning to `Cc1ccc(SC(CCC(Sc2ccc(C)cc2)Sc2ccc(C)cc2)Sc2ccc(C)cc2)cc1`, the total growth inhibition concentration (TGI) in test [1], in test [2], in [3], in test [4], in test [5] and in test [7] was greater than 100 µM throughout. In addition, the concentration for total growth inhibition (TGI) in test [8] and in [9] was greater than 100 µM in each case.

For `O=C1c2ccccc2C(Br)(Br)c2ccccc21`, the TGI in test [1], in [3], in test [4], in test [5], in test [6] and in [7] was greater than 31.6 µM throughout. Moreover, the concentration for total growth inhibition (TGI) in [8] and in test [9] was greater than 31.6 µM in each case.

Consider `COC(=O)N(C(=O)OC)C(C(=O)O)C(C)C` (stereo not drawn), for which the TGI in [1], in test [4], in [6], in [7] and in [9] was greater than 100 µM each time.

As for `CC(=O)[CH-]C(C)=O.CC(=O)[CH-]C(C)=O.[CH2-]CCC.[CH2-]CCC.[Sn+4]`, the GI50 in test [1] is 351 nM; in test [2], 0.259 µM; in [3], 48.3 nM; in test [4] it was 1390 nM; in test [5], 707 nM; in test [6] it was 1.82 µM. In addition, the concentration for 50% growth inhibition (GI50) was 309 nM in test [7], 848 nM in test [8] and 509 nM in test [9]. The total growth inhibition concentration (TGI) in test [1] came to 1.56 µM; in test [2] it was 0.73 µM; in test [4], 2.9 µM; in test [5], 1.96 µM; in test [6] it was 3.22 µM; in test [7] it was 1.22 µM. Besides, the TGI in test [8] is 2.15 µM; in test [9], 1.79 µM.

Take `COc1ccc2c(CN3CCCCC3CO)cc3cc(OC)c(OC)cc3c2c1` (stereo not drawn): the TGI in test [1] came to 17.3 µM; in test [2], 12.7 µM; in [3], 18.8 µM; in test [5], 19.4 µM; in [6], 12 µM; in [7] it was 17.8 µM. In addition, the TGI in [8] came out at 20.6 µM; in test [9], 22.1 µM.

With `CCCCCC[N+](C)(C)Cc1ccc(C[N+](C)(C)CCCCCC)cc1`, the TGI was 18.1 µM in test [1]; 38.9 µM in [2]; 6.03 µM in [4]; 14.4 µM in [5]; 24.7 µM in test [6]; 5.15 µM in test [7]. Further, the concentration for total growth inhibition (TGI) in [8] was 28.5 µM; in [9], 10.8 µM.

Take `CN(C)CC(C)(C)/C(=N\Nc1ccccc1)c1ccccc1`: the total growth inhibition concentration (TGI) in [1], in test [2], in test [3], in [4], in [5] and in test [6] was greater than 100 µM in each case. For the same compound, the TGI in test [7], in test [8] and in [9] was greater than 100 µM each time.

For `CCCCCC(=O)C(C)C1=Nc2nnc(CCCCCCCc3nnc4n3C(=O)C(C(C)C(=O)CCCCC)=N4)n2C1=O` (stereo not drawn), the concentration for total growth inhibition (TGI) in test [1], in [3], in [4], in test [5], in test [6] and in test [8] was greater than 100 µM each time. Also, in test [9], the concentration for total growth inhibition (TGI) is greater than 100 µM.

Regarding `O=c1nc(/C=C/c2ccccc2Cl)cc2n1CCN2CCO`, the TGI in test [1] was greater than 100 µM; in test [3], greater than 100 µM; in test [4] it was greater than 100 µM; in test [5], 79.8 µM; in test [6] it was greater than 100 µM; in test [7], greater than 100 µM. In test [9], this compound displayed a total growth inhibition concentration (TGI) greater than 100 µM.

For `COc1ccc(S(=O)(=O)Nc2ccccc2C(=O)O)cc1`, the concentration for total growth inhibition (TGI) in test [1], in [2], in test [3], in test [4], in [5] and in test [6] was greater than 100 µM throughout. Besides, the concentration for total growth inhibition (TGI) in [7], in test [8] and in test [9] was greater than 100 µM each time.

The GI50 is the concentration at which growth is held to half of that of the control. The term TGI denotes the concentration giving total growth inhibition. A higher TGI goes with less potent growth arrest.
